Results: patent US20130244953A1, “DUAL SECURED THERAPEUTIC PEPTIDE DELIVERY SYSTEM” (priority 2011, published 2013)

Tested on: rat red blood cells
Test: Hemolytic assay
Format: cell-based
Details: 1 μM melittin, 37° C., 1 hour, pH 7.4
Protocol: Hemolytic assay: Rat blood was used to compare hemolytic effects of free melittin, SSNS, and DSNS using DI water as positive control and PBS as negative control. Briefly, rat red blood cells were washed using 210 mM sodium chloride and dispersed in phosphate buffer saline (pH 7.4), To the SSNS, DSNS and free melittin corresponding to melittin concentration of 0.1 to 10 μM, the same amount of red blood cells was added and incubated at 37° C. for 1 hour. Following, each sample was centrifuged at 300 rcf for 2 min. and the optical density of supernatant was measured (λ=405 nm.) for the quantification of lysed cell amount. The results are shown graphically in FIG. 5 and in the corresponding photographs of FIG. 6.

Structure (SMILES): CC[C@H](C)[C@H](NC(=O)CN)C(=O)NCC(=O)N[C@@H](C)C(=O)N[C@H](C(=O)N[C@@H](CC(C)C)C(=O)N[C@@H](CCCCN)C(=O)N[C@H](C(=O)N[C@@H](CC(C)C)C(=O)N[C@H](C(=O)N[C@H](C(=O)NCC(=O)N[C@@H](CC(C)C)C(=O)N1CCC[C@H]1C(=O)N[C@@H](C)C(=O)N[C@@H](CC(C)C)C(=O)N[C@H](C(=O)N[C@@H](CO)C(=O)N[C@@H](Cc1c[nH]c2ccccc12)C(=O)N[C@H](C(=O)N[C@@H](CCCCN)C(=O)N[C@@H](CCCNC(=N)N)C(=O)N[C@@H](CCCCN)C(=O)N[C@@H](CCCNC(=N)N)C(=O)N[C@@H](CCC(N)=O)C(=O)N[C@@H](CCC(N)=O)C(N)=O)[C@@H](C)CC)[C@@H](C)CC)[C@@H](C)O)[C@@H](C)O)C(C)C)C(C)C [free melittin, melittin]
- red blood cell lysis: completely lysed the cells
